Measured values: PubChem BioAssay AID280 (DTP/NCI, 2004)
Where “and” joins values, the source holds several entries; their conditions need not be identical. Equal values may be shown once. Toxic doses and inconclusive results are not listed.

Tested on: nude mice, LOX melanoma ip, survival T/C
Assay: NCI In Vivo Anticancer Drug Screen. Data for tumor model Human Amelanotic Melanoma (LOX) (intraperitoneal) in NU/NU BALB/C (nude) mice
Conditions: endpoint: median survival time, schedule: Q04DX003 (ip), higher = longer survival
Experimental: The antitumor activity of compounds was measured in mice bearing transplantable tumors. Survival or tumor size were measured and the results are expressed as the measurement made in the treated group (T) divided by the measurement made in the vehicle treated control group (C). The tumor model used in this assay is Human Amelanotic Melanoma (LOX) (intraperitoneal) in NU/NU BALB/C (nude) mice

[1] = dose: 12.5 mg/kg/injection, vehicle: saline + Tween-80 + alcohol
[2] = dose: 25.0 mg/kg/injection, vehicle: saline + Tween-80 + alcohol
[3] = dose: 12.5 mg/kg/injection, vehicle: saline with Tween-80
[4] = dose: 50.0 mg/kg/injection, vehicle: saline with Tween-80
[5] = dose: 100.0 mg/kg/injection, vehicle: saline with Tween-80
[6] = dose: 25.0 mg/kg/injection, vehicle: saline with Tween-80
[7] = dose: 3.75 mg/kg/injection, vehicle: Klucel (hydroxypropylcellulose) (HPC)

CC1(C)Nc2cc3c(cc2-n2cccc21)oc1ccccc13
T/C (dose: 37.5 mg/kg/injection, vehicle: DMSO): 100 % of control | T/C (dose: 75.0 mg/kg/injection, vehicle: DMSO): 100 % of control | T/C (dose: 150.0 mg/kg/injection, vehicle: DMSO): 117 % of control | T/C (dose: 300.0 mg/kg/injection, vehicle: DMSO): 91 % of control

Cc1ccc(/C=C/C(=O)/C=C/c2ccc(C)o2)o1
T/C (dose: 50.0 mg/kg/injection, vehicle: DMSO): 113 % of control | T/C (dose: 100.0 mg/kg/injection, vehicle: DMSO): 102 % of control | T/C (dose: 200.0 mg/kg/injection, vehicle: DMSO): 98 % of control | T/C (dose: 400.0 mg/kg/injection, vehicle: DMSO): 100 % of control | T/C (dose: 800.0 mg/kg/injection, vehicle: DMSO): 106 % of control

Cc1ccc(NN=O)nc1
T/C (dose: 2.5 mg/kg/injection, vehicle: water): 105 % of control | T/C (dose: 5.0 mg/kg/injection, vehicle: water): 114 % of control | T/C (dose: 10.0 mg/kg/injection, vehicle: water): 115 % of control

COc1cccc2c1C(=O)C1=C(C2=O)c2c(O)cc(CO)cc2C(O)C1O (stereo not drawn)
T/C (dose: 6.25 mg/kg/injection, vehicle: saline + Tween-80 + alcohol): 98 % of control | T/C [1]: 109 % of control | T/C [2]: 112 % of control | T/C (dose: 50.0 mg/kg/injection, vehicle: saline + Tween-80 + alcohol): 109 % of control

CC(=O)N(C)c1ccc(Nc2cc(C)[nH]c3ccc4ncnc4c23)cc1
T/C [3]: 102 % of control | T/C (dose: 36.0 mg/kg/injection, vehicle: saline): 101 % of control | T/C [4]: 99 % of control | T/C (dose: 60.0 mg/kg/injection, vehicle: saline): 110 % of control | T/C [5]: 91 % of control | T/C (dose: 100.0 mg/kg/injection, vehicle: saline): 100 % of control | T/C (dose: 167.0 mg/kg/injection, vehicle: saline): 94 % of control

CC1=CC=CC(C)(C)C(O)C1=O (stereo not drawn)
T/C (dose: 18.75 mg/kg/injection, vehicle: Klucel (hydroxypropylcellulose) (HPC)): 98 % of control | T/C (dose: 37.5 mg/kg/injection, vehicle: Klucel (hydroxypropylcellulose) (HPC)): 94 % of control | T/C (dose: 75.0 mg/kg/injection, vehicle: Klucel (hydroxypropylcellulose) (HPC)): 98 % of control | T/C (dose: 150.0 mg/kg/injection, vehicle: Klucel (hydroxypropylcellulose) (HPC)): 98 % of control | T/C (dose: 300.0 mg/kg/injection, vehicle: Klucel (hydroxypropylcellulose) (HPC)): 93 % of control

CS(=O)(=O)CS(=O)(=O)OCCF
T/C (dose: 3.13 mg/kg/injection, vehicle: saline): 152 % of control | T/C (dose: 6.25 mg/kg/injection, vehicle: saline): 295 % of control | T/C (dose: 12.5 mg/kg/injection, vehicle: saline): 295 % of control | T/C (dose: 25.0 mg/kg/injection, vehicle: saline): 295 % of control | T/C (dose: 50.0 mg/kg/injection, vehicle: saline): 295 % of control

CC1OC(O[C@H]2/C=C/C=C/C=C/C=C/C=C/C=C/C=C/[C@H](C)[C@@H](O)[C@@H](C)[C@H](C)OC(=O)C[C@H](O)C[C@H](O)CC[C@@H](O)[C@H](O)C[C@H](O)C[C@]3(O)C[C@H](O)[C@@H](C(=O)O)[C@H](C2)O3)C(O)C(N)C1O (stereo partly drawn)
T/C [1]: 110 % of control | T/C [2]: 107 % of control

C/C(=N\NC(=S)N1CC2CCC(CC2)C1)c1cccc(C)n1
T/C (dose: 6.25 mg/kg/injection, vehicle: saline with Tween-80): 105 % of control | T/C [3]: 109 % of control | T/C [6]: 103 % of control | T/C [4]: 120 % of control | T/C [5]: 109 % of control

Cc1c(O)/c(=C\O)c2nc3c(=O)ccc(C(=O)NCCN(C)C)c3[nH]c2c1=O
T/C (dose: 25.0 mg/kg/injection, vehicle: water): 95 % of control and 97 % of control | T/C (dose: 50.0 mg/kg/injection, vehicle: water): 104 % of control and 98 % of control | T/C (dose: 86.4 mg/kg/injection, vehicle: water): 95 % of control | T/C (dose: 100.0 mg/kg/injection, vehicle: water): 101 % of control and 104 % of control | T/C (dose: 144.0 mg/kg/injection, vehicle: water): 99 % of control

CN=C(NC)c1ccc(NC(=O)/C=C\c2ccc(/C=C/C(=O)Nc3ccc(C(=NC)NC)cc3)cc2)cc1
T/C (dose: 0.78 mg/kg/injection, vehicle: Klucel (hydroxypropylcellulose) (HPC)): 104 % of control | T/C (dose: 1.56 mg/kg/injection, vehicle: Klucel (hydroxypropylcellulose) (HPC)): 109 % of control | T/C (dose: 2.0 mg/kg/injection, vehicle: Klucel (hydroxypropylcellulose) (HPC)): 90 % of control | T/C (dose: 2.25 mg/kg/injection, vehicle: Klucel (hydroxypropylcellulose) (HPC)): 101 % of control | T/C [7]: 87 % of control | T/C (dose: 4.0 mg/kg/injection, vehicle: Klucel (hydroxypropylcellulose) (HPC)): 105 % of control | T/C (dose: 6.0 mg/kg/injection, vehicle: Klucel (hydroxypropylcellulose) (HPC)): 111 % of control | T/C (dose: 10.0 mg/kg/injection, vehicle: Klucel (hydroxypropylcellulose) (HPC)): 105 % of control | T/C (dose: 11.0 mg/kg/injection, vehicle: Klucel (hydroxypropylcellulose) (HPC)): 98 % of control | T/C (dose: 12.5 mg/kg/injection, vehicle: Klucel (hydroxypropylcellulose) (HPC)): 109 % of control | T/C (dose: 17.0 mg/kg/injection, vehicle: Klucel (hydroxypropylcellulose) (HPC)): 90 % of control | T/C (dose: 18.0 mg/kg/injection, vehicle: Klucel (hydroxypropylcellulose) (HPC)): 95 % of control

CO[C@@]12[C@@H]3N[C@@H]3CN1C1=C(C(=O)C(NCC3CCCO3)=C(C)C1=O)[C@@H]2COC(N)=O (stereo partly drawn)
T/C (dose: 12.5 mg/kg/injection, vehicle: distilled water + Tween-80): 154 % of control | T/C (dose: 25.0 mg/kg/injection, vehicle: distilled water + Tween-80): 160 % of control | T/C (dose: 50.0 mg/kg/injection, vehicle: distilled water + Tween-80): 215 % of control

CC(=O)C[n+]1ccc(C)cc1Sc1ccccc1C
T/C [3]: 93 % of control | T/C [6]: 99 % of control | T/C [4]: 95 % of control | T/C [5]: 88 % of control

CN(C)N=Nc1ccc(C(N)=O)cc1
T/C (dose: 22.5 mg/kg/injection, vehicle: saline with Tween-80): 99 % of control | T/C (dose: 45.0 mg/kg/injection, vehicle: saline with Tween-80): 120 % of control | T/C (dose: 180.0 mg/kg/injection, vehicle: saline with Tween-80): 153 % of control | T/C (dose: 360.0 mg/kg/injection, vehicle: saline with Tween-80): 210 % of control

COc1cc2c(c(OC)c1OC)-c1ccc(OC)c(=O)cc1[C@@H](N)CC2
T/C [7]: 102 % of control | T/C (dose: 7.5 mg/kg/injection, vehicle: Klucel (hydroxypropylcellulose) (HPC)): 104 % of control | T/C (dose: 15.0 mg/kg/injection, vehicle: Klucel (hydroxypropylcellulose) (HPC)): 108 % of control and 113 % of control and 116 % of control | T/C (dose: 30.0 mg/kg/injection, vehicle: Klucel (hydroxypropylcellulose) (HPC)): 113 % of control and 114 % of control and 115 % of control | T/C (dose: 60.0 mg/kg/injection, vehicle: Klucel (hydroxypropylcellulose) (HPC)): 114 % of control | T/C (dose: 120.0 mg/kg/injection, vehicle: Klucel (hydroxypropylcellulose) (HPC)): 163 % of control

COc1cc2c(c(OC)c1O)-c1ccc(OC)c(=O)cc1[C@@H](NC(=O)C(F)(F)F)CC2
T/C (dose: 2.5 mg/kg/injection, vehicle: Klucel (hydroxypropylcellulose) (HPC)): 122 % of control

[NH-]C(CCC(N)=O)C(=O)O.[NH-]C(CCC(N)=O)C(=O)O.[Zn+2] (stereo not drawn)
T/C [3]: 94 % of control | T/C [6]: 94 % of control | T/C [4]: 118 % of control
